# Source: ChEMBL document CHEMBL1201862, “PubChem BioAssay data set” (2004)
# Activity calls are given as the source filed them.
# Columns and labels:
# Assay type in all cases: functional
# [1] = target: T1, Sentrin-specific protease 7 (Homo sapiens, UniProt Q9BQF6); assay: inhibition of human SENP7 cleavage activity – biochemical, luminescence, SAR follow-up (AID 504497)
# T1 sequence (Q9BQF6 whole entry): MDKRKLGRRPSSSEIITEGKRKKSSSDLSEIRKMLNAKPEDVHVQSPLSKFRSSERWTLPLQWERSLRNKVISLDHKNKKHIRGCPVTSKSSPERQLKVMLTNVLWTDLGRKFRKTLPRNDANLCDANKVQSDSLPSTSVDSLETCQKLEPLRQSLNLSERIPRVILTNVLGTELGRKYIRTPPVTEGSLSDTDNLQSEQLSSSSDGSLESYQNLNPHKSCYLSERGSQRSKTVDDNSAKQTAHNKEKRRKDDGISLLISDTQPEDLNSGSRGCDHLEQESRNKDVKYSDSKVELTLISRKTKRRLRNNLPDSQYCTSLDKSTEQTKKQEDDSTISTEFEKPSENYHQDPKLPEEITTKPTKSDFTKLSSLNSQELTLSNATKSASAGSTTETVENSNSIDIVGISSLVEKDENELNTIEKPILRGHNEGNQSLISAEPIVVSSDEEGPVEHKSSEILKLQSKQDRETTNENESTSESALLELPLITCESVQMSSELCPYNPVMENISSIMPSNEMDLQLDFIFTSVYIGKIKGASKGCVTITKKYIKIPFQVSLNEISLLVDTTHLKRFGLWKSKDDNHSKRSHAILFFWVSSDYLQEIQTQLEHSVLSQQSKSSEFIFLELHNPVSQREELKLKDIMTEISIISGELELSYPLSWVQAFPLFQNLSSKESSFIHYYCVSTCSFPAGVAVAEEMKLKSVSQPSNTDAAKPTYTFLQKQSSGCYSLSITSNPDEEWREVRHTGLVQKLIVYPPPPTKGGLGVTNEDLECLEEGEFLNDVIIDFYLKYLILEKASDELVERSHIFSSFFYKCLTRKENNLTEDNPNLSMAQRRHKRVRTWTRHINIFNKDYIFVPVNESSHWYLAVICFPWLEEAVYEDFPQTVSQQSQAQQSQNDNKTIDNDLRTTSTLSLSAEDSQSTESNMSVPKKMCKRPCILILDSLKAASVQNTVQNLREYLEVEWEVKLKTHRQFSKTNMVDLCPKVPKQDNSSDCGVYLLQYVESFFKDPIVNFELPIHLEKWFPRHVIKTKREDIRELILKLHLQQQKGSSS
# Caspase-3 = target: T2, Caspase-3 (Homo sapiens, UniProt P42574); assay: SAR Analysis of small molecule inhibitors of Sentrin-specific proteases (SENPs) using a Caspase-3 Selectivity assay. [Related pubchem assays (depositor defined):AID2540, AID2599, AID434973, AID489001]
# T2 sequence (P42574 whole entry): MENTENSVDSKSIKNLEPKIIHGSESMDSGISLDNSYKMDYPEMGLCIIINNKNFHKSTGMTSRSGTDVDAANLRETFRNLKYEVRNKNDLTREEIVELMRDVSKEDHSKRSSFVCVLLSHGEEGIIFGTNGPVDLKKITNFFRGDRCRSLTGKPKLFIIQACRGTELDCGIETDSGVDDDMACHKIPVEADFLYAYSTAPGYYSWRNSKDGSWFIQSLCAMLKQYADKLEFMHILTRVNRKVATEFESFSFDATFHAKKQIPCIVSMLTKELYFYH
# Beta-galactosidase = Beta-galactosidase (Escherichia coli, UniProt Q8VNN2)
# Mu-type opioid receptor = Mu-type opioid receptor (Homo sapiens, UniProt P35372); assay: HTS Image-Based Screen for Agonists of the MOR Receptor. [Related pubchem assays (depositor defined):AID1777, AID1785, AID1786, AID2133];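 also: imaging of beta-arrestin GFP recruitment into spots after receptor activation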
# [2] = target: Delta-type opioid receptor (Homo sapiens, UniProt P41143); assay: HTS Image-Based Screen for Agonists of the DOR Receptor. [Related pubchem assays (depositor defined):AID1777, AID1786, AID2133]
# [3] = target: T3, Sphingosine 1-phosphate receptor 4 (Homo sapiens, UniProt O95977); assay: Late stage fluorescence dose response cell-based screening assay for antagonists of the Sphingosine 1-Phosphate Receptor 4 (S1P4). [Related pubchem assays: 1524 (Confirmation screen (S1P4 antagonists).), 1510 (Primary screen (S1P4 antagonists).), 1853 (Summary AID (S1P4 antagonists).), 1692 (Dose response screen (S1P4 antagonists).)]
# T3 sequence (O95977 whole entry): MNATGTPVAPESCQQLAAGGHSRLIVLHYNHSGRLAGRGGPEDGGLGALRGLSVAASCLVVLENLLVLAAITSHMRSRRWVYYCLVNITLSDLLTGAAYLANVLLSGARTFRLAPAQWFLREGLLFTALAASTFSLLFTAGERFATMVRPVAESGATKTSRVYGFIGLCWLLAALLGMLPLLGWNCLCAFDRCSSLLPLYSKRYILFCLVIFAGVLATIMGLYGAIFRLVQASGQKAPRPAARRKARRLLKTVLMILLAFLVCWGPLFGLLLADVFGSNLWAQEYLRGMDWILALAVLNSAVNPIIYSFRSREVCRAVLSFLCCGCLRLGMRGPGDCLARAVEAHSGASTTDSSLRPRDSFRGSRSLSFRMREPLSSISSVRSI
# [4] = target: G-protein coupled receptor 55 (Homo sapiens, UniProt Q9Y2T6); assay: inhibition of LPI-stimulated GPR55 beta-arrestin translocation – imaging, U2OS, beta-arrestin-GFP, LPI agonist, primary screen (AID 2013);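 also: antagonist potency measured as reduced agonist-driven arrestin aggregation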
# [5] = viability loss in HEK293 cells – cell-based, plate reader, cherry-picked samples, cytotoxicity control, dose response (AID 743446)
# Sequence of Delta-type opioid receptor (P41143 whole entry): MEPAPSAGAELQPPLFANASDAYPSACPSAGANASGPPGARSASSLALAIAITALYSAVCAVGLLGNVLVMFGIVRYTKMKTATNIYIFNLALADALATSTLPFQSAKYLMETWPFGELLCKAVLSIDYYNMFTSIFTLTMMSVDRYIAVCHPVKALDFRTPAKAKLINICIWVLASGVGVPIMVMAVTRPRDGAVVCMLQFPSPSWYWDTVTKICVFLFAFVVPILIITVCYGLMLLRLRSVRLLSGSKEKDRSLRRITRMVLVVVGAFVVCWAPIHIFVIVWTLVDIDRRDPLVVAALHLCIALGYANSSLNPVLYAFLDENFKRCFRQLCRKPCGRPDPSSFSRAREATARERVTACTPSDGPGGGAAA
# Sequence of Beta-galactosidase (Q8VNN2 whole entry): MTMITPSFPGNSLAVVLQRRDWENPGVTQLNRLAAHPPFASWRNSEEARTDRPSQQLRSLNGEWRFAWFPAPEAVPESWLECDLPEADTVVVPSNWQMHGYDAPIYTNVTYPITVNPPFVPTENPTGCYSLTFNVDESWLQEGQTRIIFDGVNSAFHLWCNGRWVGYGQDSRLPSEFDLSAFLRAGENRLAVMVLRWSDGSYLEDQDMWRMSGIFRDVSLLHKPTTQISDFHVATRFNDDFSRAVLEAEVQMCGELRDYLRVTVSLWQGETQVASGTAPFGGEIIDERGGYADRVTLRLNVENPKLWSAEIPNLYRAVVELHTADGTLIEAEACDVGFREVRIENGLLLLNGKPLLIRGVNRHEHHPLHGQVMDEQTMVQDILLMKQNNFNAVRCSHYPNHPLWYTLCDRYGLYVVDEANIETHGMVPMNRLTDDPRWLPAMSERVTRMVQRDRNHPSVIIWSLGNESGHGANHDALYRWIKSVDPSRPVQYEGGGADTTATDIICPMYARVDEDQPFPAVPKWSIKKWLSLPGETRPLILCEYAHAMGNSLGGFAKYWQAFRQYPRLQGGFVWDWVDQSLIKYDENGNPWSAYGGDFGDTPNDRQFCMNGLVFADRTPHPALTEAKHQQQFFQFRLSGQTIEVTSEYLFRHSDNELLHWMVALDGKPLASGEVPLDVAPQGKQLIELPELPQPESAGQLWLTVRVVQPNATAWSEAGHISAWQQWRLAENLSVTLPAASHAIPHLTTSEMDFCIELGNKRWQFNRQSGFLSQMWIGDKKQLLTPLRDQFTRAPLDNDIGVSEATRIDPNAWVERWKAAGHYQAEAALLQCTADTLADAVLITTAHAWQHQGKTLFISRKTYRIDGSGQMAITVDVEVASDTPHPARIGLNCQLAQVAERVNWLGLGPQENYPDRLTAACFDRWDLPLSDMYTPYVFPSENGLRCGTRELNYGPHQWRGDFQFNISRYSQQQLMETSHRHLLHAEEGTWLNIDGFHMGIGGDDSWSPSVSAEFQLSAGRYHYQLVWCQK
# Sequence of Mu-type opioid receptor (P35372 whole entry): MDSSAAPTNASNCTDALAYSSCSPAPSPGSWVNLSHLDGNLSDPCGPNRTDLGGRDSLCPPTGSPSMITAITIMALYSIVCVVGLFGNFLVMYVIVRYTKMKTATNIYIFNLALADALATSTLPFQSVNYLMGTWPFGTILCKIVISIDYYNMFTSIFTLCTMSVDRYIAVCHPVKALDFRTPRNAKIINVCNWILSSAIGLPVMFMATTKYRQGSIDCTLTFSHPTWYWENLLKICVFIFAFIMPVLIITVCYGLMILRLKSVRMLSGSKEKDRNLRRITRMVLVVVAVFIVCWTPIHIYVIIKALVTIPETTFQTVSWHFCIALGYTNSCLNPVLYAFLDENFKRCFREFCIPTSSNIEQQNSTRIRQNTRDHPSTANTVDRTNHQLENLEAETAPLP
# Sequence of G-protein coupled receptor 55 (Q9Y2T6 whole entry): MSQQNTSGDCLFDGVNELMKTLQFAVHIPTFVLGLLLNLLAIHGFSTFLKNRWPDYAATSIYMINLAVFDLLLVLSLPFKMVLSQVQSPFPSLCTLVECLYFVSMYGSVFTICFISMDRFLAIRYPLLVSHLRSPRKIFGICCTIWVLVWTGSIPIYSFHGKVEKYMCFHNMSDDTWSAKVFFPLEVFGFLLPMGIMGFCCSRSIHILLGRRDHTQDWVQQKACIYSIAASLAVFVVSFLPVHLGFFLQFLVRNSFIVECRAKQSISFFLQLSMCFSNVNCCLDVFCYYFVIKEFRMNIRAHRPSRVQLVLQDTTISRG
IC50 [1],IC50 (Caspase-3),Compound,EC50 (Beta-galactosidase),EC50 (Mu-type opioid receptor),EC50 [2],IC50 [3],IC50 [4],AC50 [5]
78 µM (active),> 99 µM (inactive),Oc1ccc(/C=N\Nc2cc(N3CCOCC3)nc(N3CCOCC3)n2)c(O)c1,,,,,,
,,COc1cc(NC(=O)Cn2ncc(Cl)c(Cl)c2=O)c(C)cc1[N+](=O)[O-],> 31.5 µM (inactive),> 32 µM (inactive),> 32 µM (inactive),6.74 µM (not active),3.52 µM (active),6.28 µM (active)
